Measured values as given in paper PMC11357446, “Searching for Novel HDAC6/Hsp90 Dual Inhibitors with Anti-Prostate Cancer Activity: In Silico Screening and In Vitro Evaluation” (Pharmaceuticals, 2024).
Where two headings read alike, the source gives them in different places.

Tests used:
[1] = target: T1, HDAC6 recombinant enzyme (Homo sapiens, UniProt Q9UBN7); assay: Fluorimetric HDAC6 assay; type: biochemical; conditions: singlicate
T1 sequence (Q9UBN7 1-1215): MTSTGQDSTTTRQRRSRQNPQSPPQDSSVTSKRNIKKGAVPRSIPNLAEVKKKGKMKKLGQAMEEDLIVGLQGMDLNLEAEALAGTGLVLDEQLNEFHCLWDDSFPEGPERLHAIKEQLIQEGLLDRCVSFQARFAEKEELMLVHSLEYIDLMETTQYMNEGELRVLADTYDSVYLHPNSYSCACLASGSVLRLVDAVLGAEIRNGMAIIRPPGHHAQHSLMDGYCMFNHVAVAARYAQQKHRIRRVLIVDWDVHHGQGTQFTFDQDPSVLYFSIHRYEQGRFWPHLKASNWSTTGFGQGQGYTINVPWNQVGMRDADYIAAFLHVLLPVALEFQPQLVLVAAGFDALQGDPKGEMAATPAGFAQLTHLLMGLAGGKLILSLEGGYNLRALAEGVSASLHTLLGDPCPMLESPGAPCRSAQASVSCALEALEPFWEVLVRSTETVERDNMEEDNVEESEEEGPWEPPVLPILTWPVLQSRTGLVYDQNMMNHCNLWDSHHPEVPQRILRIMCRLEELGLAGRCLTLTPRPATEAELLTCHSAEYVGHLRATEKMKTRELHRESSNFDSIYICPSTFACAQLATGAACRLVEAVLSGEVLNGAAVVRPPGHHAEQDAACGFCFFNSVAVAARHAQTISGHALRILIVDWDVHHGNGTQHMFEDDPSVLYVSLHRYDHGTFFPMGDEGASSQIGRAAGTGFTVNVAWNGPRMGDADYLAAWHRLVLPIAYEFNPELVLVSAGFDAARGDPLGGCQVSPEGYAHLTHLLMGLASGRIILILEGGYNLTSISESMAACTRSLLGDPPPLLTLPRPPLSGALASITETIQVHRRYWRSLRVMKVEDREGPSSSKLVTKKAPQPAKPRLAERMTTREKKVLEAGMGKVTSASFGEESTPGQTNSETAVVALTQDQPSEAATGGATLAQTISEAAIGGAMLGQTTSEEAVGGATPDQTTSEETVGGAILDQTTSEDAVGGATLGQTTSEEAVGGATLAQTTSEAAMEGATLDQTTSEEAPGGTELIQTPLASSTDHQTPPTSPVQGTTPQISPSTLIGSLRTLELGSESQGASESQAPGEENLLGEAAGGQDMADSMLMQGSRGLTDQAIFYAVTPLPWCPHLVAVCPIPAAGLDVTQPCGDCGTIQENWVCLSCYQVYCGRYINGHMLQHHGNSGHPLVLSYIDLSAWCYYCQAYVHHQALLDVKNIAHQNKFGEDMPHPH
Protocol: In vitro assessments of compounds on the HDAC6 enzyme were performed, as described in our previous works. […] The blank employed for curve fitting was evaluated on a solution of the buffer containing a concentration of […] of DMSO. IC50 values were calculated by using the GraphPad Prism 4 program based on a sigmoidal dose–response equation.

[2] = tested on: PC-3 prostate cancer cells; assay: Cell viability assay (MTT) on PC-3 cells; type: cell-based, human; conditions: 72 h treatment, MTT, mean of three independent experiments ± SEM, read-out: PC-3 GI50
Protocol: The human prostate cancer cell line PC-3 (ATCC Cat# CRL-1435) was grown in Ham’s F12 (Biowest, Nuaillé, France) medium, while the human prostate cancer cell line LNCaP (ATCC Cat# CRL-1740) was grown in RPMI 1640 (Biowest, Nuaillé, France) medium. Both media were supplemented with 10% Fetal Bovine Serum (FBS, Gibco, Fisher Scientific Italia, Segrate, Italy), 2 mM glutamine, 100 U/mL penicillin, and 100 μg/mL streptomycin. PC-3 and LNCaP cells were maintained at 37 °C in a humidified 5% CO2 atmosphere.
PC-3 and LNCaP cells were seeded at a density of 4000 and 6000 cells/well into a 96-well plate, respectively, together with a calibration curve of known cell numbers. The following day, the cells were treated with the indicated test compounds at different concentrations starting at 75μM with 2-fold serial dilutions. Cell viability was evaluated after 72h by colorimetric MTT (PC-3) or PrestoBlue™ (LNCaP) cell viability reagents. A total of 0.5 mg/mL of thiazolyl blue tetrazolium bromide (MTT) (Sigma-Aldrich, St. Louis, MO, USA) in Ham’s F12 medium was added to the wells, and the plate was incubated at 37 °C for 2 h. Medium containing unconverted MTT was removed, and 100 μL of MTT solvent (4 mM HCl, 0.1% NP40, in isopropyl alcohol) was added to the wells in order to solubilize MTT crystals. After 15 min of incubation at room temperature, the absorbance values at 570 nm were obtained with a Multiskan FC Microplate Photometer (Thermo Fisher Scientific, Waltham, MA, USA). PrestoBlue reagent (#A13261, Thermo Fisher Scientific, Waltham, MA, USA) was added to the medium (1:10 v/v) and incubated for 1 h at 37 °C. Cell viability was calculated by quantifying PrestoBlue reduction by measuring the absorbance at 570 and 620 nm, according to the manufacturer’s protocol. The viability of untreated cells was arbitrarily set at 100%, and the concentration at which cellular growth is inhibited by 50% (GI50) was determined. Three independent experiments were performed.

Structure (SMILES) | IC50 [1] [µM] | GI50 ([2]; Homo sapiens, PC-3, 72 h) [µM] | GI50 [2] [µM]
CC(C)[C@H](C(=O)NCc1ccc(C(=O)NO)cc1)N1Cc2ccccc2C1=O [Compound 11] | 0.005 | 13.9 ± 2.9 | 
O=C(Nc1ncccc1O)c1ccc(-c2noc(C(F)(F)F)n2)cc1 [Compound 18] | 2.7 | 21 ± 5.4 | 
O=C(c1cc(OCc2ccccc2)ccc1O)N1CCC(c2noc(C(F)(F)F)n2)CC1 [Compound 8] | 6.5 | ~50 | 51.8 ± 0.6
